Our source for the IC50 values is ChEMBL document CHEMBL1134893, “Novel 20-carbonate linked prodrugs of camptothecin and 9-aminocamptothecin designed for activation by tumour-associated plasmin” (2002).

What all share (type): functional
Conditions in all cases: read-out: ID50 (the source's name)

One test concerns A498. The experiment in a line: Inhibitory dose required against A498 human tumor cell lines.
For a further test, the system named is M19-MEL. In words: Inhibitory dose required against M19 human tumor cell lines.
In the next test the test system is NCI-H226. The experiment in a line: Inhibitory dose required against H226 human tumor cell lines.
The test system of the next test is WiDr. The experiment in a line: Inhibitory dose required against WIDR human tumor cell lines.
For another test, the system named is MCF7. In words: Inhibitory dose required against MCF-7 human tumor cell lines.
The next test relates to EVSA-T. The experiment in a line: Inhibitory dose required against EVSA-T human tumor cell lines.
The next test concerns IGROV-1. In words: Inhibitory dose required against IGROV human tumor cell lines.

Take `CC[C@@]1(OC(=O)OCc2ccc(NC(=O)[C@H](CCCCN)NC(=O)[C@H](Cc3ccccc3)NC(=O)[C@@H](C)N)cc2)C(=O)OCc2c1cc1n(c2=O)Cc2cc3ccccc3nc2-1.Cl.Cl`: the IC50 stood at 0.022 µg/mL in the test with A498; 0.219 µg/mL in the test on M19-MEL; 0.111 µg/mL with NCI-H226; 0.022 µg/mL with WiDr; 0.01 µg/mL in the test with MCF7; 0.049 µg/mL in the test with EVSA-T. For the same molecule, the IC50 with IGROV-1 is 0.02 µg/mL.
As for `CC[C@@]1(O)C(=O)OCc2c1cc1n(c2=O)Cc2cc3ccccc3nc2-1` [CAMPTOTHECIN], the IC50 in the test with A498 is under 0.0032 µg/mL; in the test on M19-MEL, under 0.013 µg/mL; in the test on NCI-H226, under 0.005 µg/mL; in the test with WiDr it was under 0.0032 µg/mL; in the test on MCF7, under 0.0032 µg/mL; in the test on EVSA-T it was under 0.0032 µg/mL. The IC50 with IGROV-1 was under 0.0032 µg/mL.
`CC[C@@]1(OC(=O)OCc2ccc(NC(=O)[C@H](CCCCN)NC(=O)[C@H](Cc3ccccc3)NC(=O)[C@@H](C)N)cc2)C(=O)OCc2c1cc1n(c2=O)Cc2cc3c(N)cccc3nc2-1.Cl.Cl.Cl`: the IC50 was determined as 0.039 µg/mL with A498; 0.01 µg/mL in the test on M19-MEL; 0.021 µg/mL in the test with NCI-H226; 0.007 µg/mL with WiDr; 0.019 µg/mL in the test on MCF7; 0.137 µg/mL in the test with EVSA-T. In the test on IGROV-1, the IC50 stood at 0.008 µg/mL.
Take `CC[C@@]1(O)C(=O)OCc2c1cc1n(c2=O)Cc2cc3c(N)cccc3nc2-1` [9-AMINOCAMPTOTHECIN]: the IC50 in the test on A498 was under 0.01 µg/mL; in the test on M19-MEL, under 0.024 µg/mL; in the test on NCI-H226 it was under 0.007 µg/mL; in the test with WiDr, under 0.0032 µg/mL; with MCF7, under 0.0032 µg/mL; in the test on EVSA-T, under 0.0032 µg/mL. For the same molecule, in the test on IGROV-1, the IC50 was under 0.0032 µg/mL.
